The target in one assay is T1, CDK1 (cyclin B) (Homo sapiens, UniProt P06493).
T1 construct: purchased Invitrogen Life Technologies (assay service)
Nature of the assay: Z'-LYTE kinase assay. The assay is classed as biochemical. As to the method: The plates were shaken for 30 seconds, and incubated for 60 minutes at room temperature. […] The plates were read on fluorescence plate reader with Dual emission at 445 nm and 520 nm.
The following equations were used for Z′-LYTE™ Screening Assay Data Analysis.

A further assay concerns the target T2, CDK6 (Homo sapiens, UniProt Q00534).
T2 construct: purchased Invitrogen PR8422B
As to the kind of experiment: In vitro kinase inhibition IC50, luminescence (ADP Glo), retinoblastoma substrate. The assay is classed as biochemical. The following applies: read-out: CDK6/D1 IC50. A digest of the protocol: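 IC50 derived by four-parameter logistic fit of percent inhibition, read as ADP-Glo luminescence. Reactions: 5 nM CDK6, 1 μM retinoblastoma, 25 μM ATP, test compound 0.1–200 nM final, 2 h at room temperature.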

For a further assay, the target named is T3, CDK4 (Homo sapiens, UniProt P11802).
T3 construct: purchased Invitrogen PR8064A
T3 sequence (P11802 whole entry): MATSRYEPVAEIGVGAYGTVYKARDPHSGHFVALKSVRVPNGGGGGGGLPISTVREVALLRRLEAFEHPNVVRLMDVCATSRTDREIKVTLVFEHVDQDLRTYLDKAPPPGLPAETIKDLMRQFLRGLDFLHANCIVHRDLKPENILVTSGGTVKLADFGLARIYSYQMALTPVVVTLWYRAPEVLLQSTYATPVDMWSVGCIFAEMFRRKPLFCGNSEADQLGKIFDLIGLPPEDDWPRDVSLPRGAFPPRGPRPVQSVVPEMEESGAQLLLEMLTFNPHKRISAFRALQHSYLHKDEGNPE
T3 sequence (P24385 whole entry partner): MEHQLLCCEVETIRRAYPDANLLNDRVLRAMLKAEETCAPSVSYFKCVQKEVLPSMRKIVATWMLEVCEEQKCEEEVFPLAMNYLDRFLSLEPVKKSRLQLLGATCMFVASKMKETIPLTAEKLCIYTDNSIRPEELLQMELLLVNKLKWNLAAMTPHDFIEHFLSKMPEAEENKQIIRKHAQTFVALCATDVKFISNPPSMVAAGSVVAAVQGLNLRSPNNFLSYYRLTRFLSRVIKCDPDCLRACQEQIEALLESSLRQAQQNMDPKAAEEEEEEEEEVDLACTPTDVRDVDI
Described as above. The note with it: read-out: CDK4/D1 IC50. The class given is biochemical. In a few lines:
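Inhibition of CDK4 was quantified by ADP Glo luminescence with retinoblastoma as substrate. Reactions held 5 nM kinase, 1 μM retinoblastoma and 25 μM ATP and ran 2H at room temperature. A Synergy Neo reader took signals 15 min and 45 min after detection reagent, and percent inhibition was fitted to a four-parameter logistic model in XLfit to obtain IC50.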

Assay [1] deals with DU4475 breast carcinoma cells. Nature of the assay: Cancer cell proliferation assay, single agent (cell viability). The assay is classed as cell-based. The note with it: Homo sapiens, DU-4475; Table 4; Rb negative; treatment 144 Hr with medium change at 72 Hr; Cell Titer-Glo or resazurin. A digest of the protocol: (§1)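 Viability read by resazurin or CellTiter-Glo after 24 h treatment (BT-549) or 144 h with a 72 h medium change (MCF-7, DU4475). Compounds tested at 7–9 concentrations, e.g. 1.1 nM–10 μM, added the day after seeding; IC50 by nonlinear sigmoidal regression.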

Assay [2] concerns MCF-7 breast adenocarcinoma cells. The assay is described as above. The class given is cell-based. The note with it: Homo sapiens, MCF7, Table 4; Rb positive; treatment 144 Hr with medium change at 72 Hr; Cell Titer-Glo or resazurin. In a few lines: as §1
For orientation: Cellular ATP, detected with luciferase, serves as a proxy for viable cell number.

The next assay deals with T4, CDK2 (cyclin A) (Homo sapiens, UniProt P24941).
T4 construct: purchased Invitrogen Life Technologies (assay service)
As to the kind of experiment: Z'-LYTE kinase assay. The assay is classed as biochemical. The procedure: IC50 values of compounds against CDK2 (cyclin A) were determined by Z′-LYTE™ These screening assays were performed at Invitrogen Life Technologies (Grand Island, N.Y.) on a low volume NBS, black 384-well plate (#4514, Corning). 0.1 μL of 100×test compound in 100% DMSO (at specific solutions) was mixed with 2.4 μL of Kinase Buffer (50 mM HEPES pH 7.5, 0.01% BRIJ-35, 10 mM MgCl2, 1 mM EGTA), 5 μL of 2× Kinase (1.22-10.3 ng CDK2/cyclin A)/Peptide (2 μM Ser/Thr 12), and 2.5 μL of 4×ATP solution (31 μM). The plates were shaken for 30 seconds, and incubated for 60 minutes at room temperature. Development Reagent Solution (5 μL of 1:1024 dilution) was added to the plates followed with another 30-second plate shake and the plates were further incubated at room temperature for one hour. The plates were read on fluorescence plate reader with Dual emission at 445 nm and 520 nm.
The following equations were used for Z′-LYTE™ Screening Assay Data Analysis. Percent inhibition (100-% activity) was fitted to the “four-parameter logistic model” in XLfit for determination of IC50 values.

Data on 13 molecules can be found in US20220273659A1, “HETEROCYCLIC COMPOUNDS AS KINASE INHIBITORS” (NUVATION BIO INC., priority 2019, published 2022).

Like-named read-outs stand apart in the source and are kept apart here.

T1 sequence (P06493 whole entry): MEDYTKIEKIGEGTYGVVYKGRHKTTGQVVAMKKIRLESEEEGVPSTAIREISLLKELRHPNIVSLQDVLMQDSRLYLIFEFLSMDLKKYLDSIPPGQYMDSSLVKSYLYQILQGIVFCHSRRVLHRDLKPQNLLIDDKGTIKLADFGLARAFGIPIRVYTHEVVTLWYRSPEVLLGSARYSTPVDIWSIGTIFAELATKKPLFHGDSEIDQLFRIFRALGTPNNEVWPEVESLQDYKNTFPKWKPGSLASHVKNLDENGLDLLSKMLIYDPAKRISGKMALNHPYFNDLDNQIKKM
T1 sequence (P14635 whole entry partner): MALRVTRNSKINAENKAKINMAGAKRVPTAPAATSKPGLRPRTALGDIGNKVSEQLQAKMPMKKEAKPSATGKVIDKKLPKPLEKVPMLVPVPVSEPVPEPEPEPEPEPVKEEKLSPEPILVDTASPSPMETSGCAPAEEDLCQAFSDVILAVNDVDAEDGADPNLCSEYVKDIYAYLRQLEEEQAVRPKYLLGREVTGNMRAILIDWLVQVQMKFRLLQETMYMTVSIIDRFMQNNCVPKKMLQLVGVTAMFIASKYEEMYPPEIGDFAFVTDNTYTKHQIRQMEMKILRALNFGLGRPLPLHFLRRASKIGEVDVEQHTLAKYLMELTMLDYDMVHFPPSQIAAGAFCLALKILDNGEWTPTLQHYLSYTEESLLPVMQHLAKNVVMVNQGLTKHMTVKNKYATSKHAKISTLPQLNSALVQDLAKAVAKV
T2 sequence (Q00534 whole entry): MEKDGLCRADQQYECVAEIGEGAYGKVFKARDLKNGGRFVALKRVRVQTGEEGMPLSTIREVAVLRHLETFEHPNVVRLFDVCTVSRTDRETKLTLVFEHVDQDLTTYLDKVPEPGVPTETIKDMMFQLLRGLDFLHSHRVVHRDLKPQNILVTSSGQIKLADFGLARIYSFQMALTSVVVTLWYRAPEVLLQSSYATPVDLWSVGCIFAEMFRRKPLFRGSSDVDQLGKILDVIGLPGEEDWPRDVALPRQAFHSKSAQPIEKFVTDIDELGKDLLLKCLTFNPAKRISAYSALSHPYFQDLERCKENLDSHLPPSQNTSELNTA
T2 sequence (P24385 whole entry partner): as the sequence (P24385 whole entry partner) above

Take `N#Cc1cc2cnc(Nc3ccc4c(c3)CCN(C(=O)CO)C4)nc2n(C2CCCC2)c1=O` [Compound No. 70, 8-cyclopentyl-2-((2-(2-hydroxyacetyl)-1,2,3,4-tetrahydroisoquinolin-6-yl)amino)-7-oxo-7,8-dihydropyrido[2,3-d]pyrimidine-6-carbonitrile]: the IC50 at CDK1 (cyclin B) (read-out: CDK1/B IC50) was found to be 354 nM; at CDK6 it was 6 nM; at CDK4, 12 nM; in assay [1] it was 1180 nM; in assay [2], 818 nM; at CDK2 (cyclin A) it was 27 nM.

Take `N#Cc1cc2cnc(Nc3ccc4c(c3)CCN(CC(N)=O)C4)nc2n(C2CCCC2)c1=O` [Compound No. 69, 2-(6-((6-cyano-8-cyclopentyl-7-oxo-7,8-dihydropyrido[2,3-d]pyrimidin-2-yl)amino)-3,4-dihydroisoquinolin-2(1H)-yl)acetamide]: the IC50 on CDK1 (cyclin B) (read-out: CDK1/B IC50) was found to be 683 nM; on CDK6, 7 nM; at CDK4, 12 nM; in assay [1] it was 1680 nM; in assay [2], 1990 nM; against CDK2 (cyclin A), 252 nM.

With `CS(=O)(=O)N1CCC(Nc2ncc3cc(C#N)c(=O)n([C@H]4CCC(F)(F)C4)c3n2)CC1` [Compound No. 384, (S)-8-(3,3-difluorocyclopentyl)-2-(1-(methylsulfonyl)piperidin-4-ylamino)-7-oxo-7,8-dihydropyrido[2,3-d]pyrimidine-6-carbonitrile], the IC50 on CDK1 (cyclin B) was 585 nM; on CDK6, 20 nM; at CDK4, 24 nM; in assay [1], 5680 nM; in assay [2] it was 1600 nM; against CDK2 (cyclin A), 28 nM.

For `C[C@@]1(O)CCC[C@H]1n1c(=O)c(C#N)cc2cnc(NC3CCN(S(C)(=O)=O)CC3)nc21` [Compound No. 380, 8-((1R,2R)-2-hydroxy-2-methylcyclopentyl)-2-(1-(methylsulfonyl)piperidin-4-ylamino)-7-oxo-7,8-dihydropyrido[2,3-d]pyrimidine-6-carbonitrile], the IC50 on CDK1 (cyclin B) (read-out: CDK1/B IC50) came to 55 nM; at CDK6, 15 nM; on CDK4, 30 nM; in assay [1], 715 nM; in assay [2], 1220 nM; against CDK2 (cyclin A), 5.5 nM.

`N#Cc1cc2cnc(NC3CCN(S(=O)(=O)C(F)(F)F)CC3)nc2n(C2CCCC2)c1=O` [Compound No. 371, 8-cyclopentyl-7-oxo-2-((1-((trifluoromethyl)sulfonyl)piperidin-4-yl)amino)-7,8-dihydropyrido[2,3-d]pyrimidine-6-carbonitrile]: the IC50 is > 5000 nM at CDK1 (cyclin B) (read-out: CDK1/B IC50); 25 nM at CDK6; 14 nM at CDK4; 2600 nM in assay [1]; 515 nM in assay [2]; 3410 nM at CDK2 (cyclin A).

Turning to `CS(=O)(=O)N1CCC(Nc2ncc3cc(C#N)c(=O)n([C@@H]4CCC(F)(F)C4)c3n2)CC1` [Compound No. 385, (R)-8-(3,3-difluorocyclopentyl)-2-(1-(methylsulfonyl)piperidin-4-ylamino)-7-oxo-7,8-dihydropyrido[2,3-d]pyrimidine-6-carbonitrile], the IC50 against CDK1 (cyclin B) is 2620 nM; on CDK6, 65 nM; on CDK4, 49 nM; in assay [1], > 10000 nM; in assay [2] it was 2820 nM; at CDK2 (cyclin A) it was 96 nM.

With `N#Cc1cc2cnc(NC3CCN(S(=O)(=O)N4CCOCC4)CC3)nc2n(C2CCCC2)c1=O` [Compound No. 383, 8-cyclopentyl-2-(1-(morpholinosulfonyl)piperidin-4-ylamino)-7-oxo-7,8-dihydropyrido[2,3-d]pyrimidine-6-carbonitrile], the IC50 was 233 nM on CDK1 (cyclin B); 6 nM at CDK6; 11 nM on CDK4; 2440 nM in assay [1]; 145 nM in assay [2]; 8 nM against CDK2 (cyclin A).

As for `CS(=O)(=O)N1CCC(Nc2ncc3cc(C4CC4)c(=O)n(C4CCCC4)c3n2)CC1` [Compound No. 379, 8-cyclopentyl-6-cyclopropyl-2-((1-(methylsulfonyl)piperidin-4-yl)amino)pyrido[2,3-d]pyrimidin-7(8H)-one], the IC50 is > 3620 nM at CDK1 (cyclin B) (read-out: CDK1/B IC50); 67 nM at CDK6; 16 nM at CDK4; 4720 nM in assay [1]; 1220 nM in assay [2]; 434 nM on CDK2 (cyclin A).

As for `CS(=O)(=O)N1CCC(Nc2ncc3cc(C#N)c(=O)n(C45CC(C4)C5)c3n2)CC1` [Compound No. 369, 8-(bicyclo[1.1.1]pentan-1-yl)-2-((1-(methylsulfonyl)piperidin-4-yl)amino)-7-oxo-7,8-dihydropyrido[2,3-d]pyrimidine-6-carbonitrile], the IC50 at CDK1 (cyclin B) (read-out: CDK1/B IC50) came out at 87 nM; at CDK6 it was 5.5 nM; at CDK4, 7 nM; in assay [1], 670 nM; in assay [2] it was 107 nM; against CDK2 (cyclin A), 7 nM.

Take `N#Cc1cc2cnc(NC3CCCC3O)nc2n(C2CCCC2)c1=O` (stereo not drawn) [Compound No. 349, 8-cyclopentyl-2-((2-hydroxycyclopentyl)amino)-7-oxo-7,8-dihydropyrido[2,3-d]pyrimidine-6-carbonitrile]: the IC50 at CDK1 (cyclin B) (read-out: CDK1/B IC50) amounted to 735 nM; on CDK6, 62 nM; on CDK4, 29 nM; in assay [1], 5660 nM; in assay [2], 770 nM; against CDK2 (cyclin A), 475 nM.

As to `CS(=O)(=O)N1CCC(Nc2ncc3cc(C#N)c(=O)n([C@@H]4C[C@H]5CC[C@@H]4C5)c3n2)CC1` [Compound No. 386, 8-((1R,2R,4S)-bicyclo[2.2.1]heptan-2-yl)-2-(1-(methylsulfonyl)piperidin-4-ylamino)-7-oxo-7,8-dihydropyrido[2,3-d]pyrimidine-6-carbonitrile], the IC50 was determined as 118 nM against CDK1 (cyclin B); 4 nM at CDK6; 5 nM at CDK4; 870 nM in assay [1]; 270 nM in assay [2]; 9.5 nM against CDK2 (cyclin A).

Regarding `CS(=O)(=O)N1CCC(Nc2ncc3cc(C#N)c(=O)n([C@H]4C[C@@H]5CC[C@H]4C5)c3n2)CC1` [Compound No. 387, 8-((1S,2S,4R)-bicyclo[2.2.1]heptan-2-yl)-2-(1-(methylsulfonyl)piperidin-4-ylamino)-7-oxo-7,8-dihydropyrido[2,3-d]pyrimidine-6-carbonitrile], the IC50 amounted to 1100 nM on CDK1 (cyclin B); 17 nM at CDK6; 20 nM on CDK4; 7060 nM in assay [1]; 580 nM in assay [2]; 88 nM against CDK2 (cyclin A).

As for `CCCCCc1ccc(S(=O)(=O)N2CCC(Nc3ncc4cc(C#N)c(=O)n(C5CCCC5)c4n3)CC2)cc1` [Compound No. 381, 8-cyclopentyl-7-oxo-2-(1-(4-pentylphenylsulfonyl)piperidin-4-ylamino)-7,8-dihydropyrido[2,3-d]pyrimidine-6-carbonitrile], the IC50 at CDK1 (cyclin B) (read-out: CDK1/B IC50) was > 3570 nM; at CDK6, 120 nM; at CDK4, > 200 nM; in assay [1] it was > 10000 nM; in assay [2], 743 nM; on CDK2 (cyclin A), 57 nM.
